In the supplement of paper PMC10307832:

Assays:
Test in all cases: relative viability (nuclei count vs DMSO), 5 days (fraction); higher = more cells survive
Vismodegib + OSI-027 = compound: CS(=O)(=O)c1ccc(C(=O)Nc2ccc(Cl)c(-c3ccccn3)c2)c(Cl)c1 [Vismodegib] + COc1cccc2cc(-c3nc([C@H]4CC[C@H](C(=O)O)CC4)n4ncnc(N)c34)[nH]c12 [OSI-027] (partner 0.5 µM)
Outline: (§1)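 Medians of duplicate plates are given as relative viability. That measure is the nuclei count in treated wells divided by the count in vehicle wells. Counts were taken on 4× images of lung cancer cell lines in 1536-well plates, 5 days after pin-tool dosing the day after seeding with one drug alone or a fixed anchor-drug dose plus five library-drug doses (not always all listed) in √10 steps.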

[1] = compound: N#CC[C@H](C1CCCC1)n1cc(-c2ncnc3[nH]ccc23)cn1 [Ruxolitinib] + CC(=O)c1c(C)c2cnc(Nc3ccc(N4CCNCC4)cn3)nc2n(C2CCCC2)c1=O [Palbociclib] (partner 0.5 µM)
Outline: as §1

Ruxolitinib + Foretinib = compound: N#CC[C@H](C1CCCC1)n1cc(-c2ncnc3[nH]ccc23)cn1 [Ruxolitinib] + COc1cc2c(Oc3ccc(NC(=O)C4(C(=O)Nc5ccc(F)cc5)CC4)cc3F)ccnc2cc1OCCCN1CCOCC1 [Foretinib] (partner 0.25 µM)
Outline: as §1

Ruxolitinib + Pictilisib = compound: N#CC[C@H](C1CCCC1)n1cc(-c2ncnc3[nH]ccc23)cn1 [Ruxolitinib] + CS(=O)(=O)N1CCN(Cc2cc3nc(-c4cccc5[nH]ncc45)nc(N4CCOCC4)c3s2)CC1 [Pictilisib] (partner 1 µM)
Outline: as §1

Cell Line	relative viability (Vismodegib + OSI-027; first compound 0.08 µM)	relative viability (Vismodegib + OSI-027; first compound 0.253 µM)	relative viability (Vismodegib + OSI-027; first compound 0.8 µM)	relative viability (Vismodegib + OSI-027; first compound 2.53 µM)	relative viability (Vismodegib + OSI-027; first compound 8 µM)	relative viability ([1]; first compound 0.08 µM)	relative viability ([1]; first compound 0.253 µM)	relative viability ([1]; first compound 0.8 µM)	relative viability ([1]; first compound 2.53 µM)	relative viability ([1]; first compound 8 µM)	relative viability (Ruxolitinib + Foretinib; first compound 0.08 µM)	relative viability (Ruxolitinib + Foretinib; first compound 0.253 µM)	relative viability (Ruxolitinib + Foretinib; first compound 0.8 µM)	relative viability (Ruxolitinib + Foretinib; first compound 2.53 µM)	relative viability (Ruxolitinib + Foretinib; first compound 8 µM)	relative viability (Ruxolitinib + Pictilisib; first compound 0.08 µM)	relative viability (Ruxolitinib + Pictilisib; first compound 0.253 µM)	relative viability (Ruxolitinib + Pictilisib; first compound 0.8 µM)	relative viability (Ruxolitinib + Pictilisib; first compound 8 µM)	relative viability (Ruxolitinib + Pictilisib; first compound 2.53 µM)
NCI-H661	0.735	0.705	0.723	0.738	0.731	0.425	0.436	0.427	0.417	0.381	0.92	1.05	1.08	0.94	0.926	0.41	0.322	0.379	0.465	
NCI-H727	0.57	0.451	0.446	0.528	0.655	0.539	0.676	0.586	0.611	0.713	1.21	0.976	1.3	0.873	1.03	0.427	0.384	0.6	0.725	0.309
NCI-H838	0.416	0.334	0.338	0.41	0.441	0.254	0.223	0.227	0.164	0.159	1.06	0.994	0.907	0.572	0.453	0.464	0.433	0.402	0.278	0.24
NCI-H1355	0.488	0.447	0.378	0.444	0.399	0.416	0.371	0.429	0.402	0.368	0.85	0.967	1.12	0.87	0.893	0.385	0.391	0.386	0.352	0.329
NCI-H1395	0.608	0.562	0.596	0.599	0.686	0.596	0.555	0.674	0.636	0.572	1.07	0.919	1.03	0.866	0.968		0.553	0.645	0.601	0.584
NCI-H1437	0.884	0.805	0.905	0.858	0.804	0.541	0.41	0.448	0.417	0.378	1.37	1.51	1.41	1.35	1.17	0.533	0.351	0.43	0.397	0.429
NCI-H1650	0.652	0.562	0.577	0.555	0.729	0.333	0.345	0.395	0.287	0.356		1.25	1.29	1.27	1.13		0.608	0.734	0.645	0.551
NCI-H1651	0.658	0.774	0.543	0.771	0.703	0.506	0.496	0.524	0.502	0.525	0.621	0.791	0.947	0.776	0.95	0.742	0.599	0.727	0.664	0.477
NCI-H1666	0.841	0.764	0.786	0.858	0.958	0.66	0.613	0.654	0.675	0.632	0.844	0.93	1.01	0.856	0.892	0.384	0.453	0.483	0.611	0.415
NCI-H1734	0.603	0.598	0.727	0.577	0.605	0.374	0.299	0.337	0.345	0.354	0.862	0.713	0.894	0.759	0.815	0.479	0.417	0.435	0.468	0.37
NCI-H1755	0.782	0.688	0.73	0.689	0.634	0.505	0.468	0.466	0.452	0.391	0.946	0.892	0.91	0.852	0.755	0.425	0.43	0.469	0.297	0.329
NCI-H1793		0.246	0.248	0.242	0.23	0.291	0.287	0.307	0.319	0.335	0.604	0.668	0.959	0.761	0.54	0.311	0.409	0.25	0.282	0.38
NCI-H1915	0.669	0.592	0.536	0.566	0.608	0.515	0.516	0.579	0.443	0.481	1.1	1.11	1.17	0.947	0.982	0.894	0.925	0.952	0.835	0.803
NCI-H1944	0.413	0.391	0.422	0.388	0.442	0.33	0.321	0.375	0.31	0.318	0.839	0.886	0.876	0.873	0.877	0.362	0.334	0.381	0.332	0.323
NCI-H1975	0.724	0.633	0.686	0.632	0.607	0.492	0.395	0.612	0.469	0.277	1.04	0.933	0.995	0.956	0.603	0.302	0.254	0.285	0.231	0.243
